Assays:
[1] = in vivo; design: species or system canine (beagle); details: beagle, dog
Protocol: In parallel animal model studies, four canine (beagle) subjects were given 45 mg/kg of berberine orally. Serum concentrations of the drug were determined by HPLC at 2 and 3 hours after administration. […] After the berberine had cleared the system, the same dog was then administered 700 mg/kg of berberine and blood samples were taken 2, 3, 5, 7, 9 and 24 hours after administration resulting in concentrations of 21.51, 44.89, 49.54, 36.35, 27.83, and 16.01 ηg/ml respectively.

[2] = system: InsR; assay: InsR expression in Bel-7402 cells; assay type: cell-based, human; details: Bel-7402 compared with HepG2
Text: The effect of berberine on InsR was further confirmed in another hepatoma cell line, Bel-7402 […] (FIG. 18). […] The expression of PPAR-r mRNA in liver cells was not changed by berberine (data not shown).

[3] = system: rat model subjects; assay: Combinatorial anti-hyperlipidemia efficacy of berberine and lovastatin in rats (Table 9); assay type: in vivo
[4] = system: LDLR; assay: Hamster liver LDLR mRNA and protein expression (real-time RT-PCR, western blot); assay type: in vivo, Chinese hamster; details: 100 mg/kg/day of berberine, end of treatment
Protocol: (§1) Two weeks prior to treatment, female Chinese hamsters purchased from the National Institute of Vaccine and Serum research (Beijing, China) were switched to a high fat and cholesterol diet (10% lard, 10% egg yolk powder and 1% cholesterol). After two weeks, groups of 14 hamsters were given either 10 mg/kg/day of berberine through peritoneal injection, 20 mg/kg/day of berberine through peritoneal injection, 50 mg/kg/day, 100 mg/kg/day of berberine orally or saline for ten days. Serum cholesterol, triglyceride and LDL levels were measured after 4 h fasting before, during and after the course of the treatment. Four hours after the course of the treatment, the animals were sacrificed and their livers removed for analysis.
At the end of treatment, three animals from each group were killed and liver LDLR mRNA and protein expressions were examined by quantitative real-time RT-PCR and western blot analysis. For the real-time RT-PCR, reverse transcription with random primers using Superscript II at 42° C. for 30 minutes with 1 μg of total RNA was performed using the ABI Prism 7900-HT Sequence Detection System and Universal MasterMix (Applied Biosystems, Foster City, Calif.). LDLR and GAPD mRNA expression levels were determined using the human LDLR and GAPD Pre-developed TaqMan Assay Reagents (Applied Biosystems).

[5] = Toxicity analysis (LD50) in mice; details: mouse, in vivo
Protocol: Rats and mice were administered berberine through a variety of techniques, including orally, through subcutaneous injection, peritoneal injection and intravenous injection.

[6] = Excretion of berberine in rats (urine, fecal matter, gall bladder secretions); assay type: in vivo, rat; details: rat, in vivo, iv
Protocol: In a final series of animal model studies, rats were orally administered 3H-berberine. Forty-eight hours after administration, excretions were tested for the presence of berberine. 2.7% of the oral dose was measured in the urine and 86% of the oral dose was measured in the fecal matter.
Rats received intravenous berberine (9.25 MBq/kg). Six days accumulation of rat urine and fecal secretions were measured for the presence of berberine. 73% of the intravenous dose of the berberine was found in the accumulated urine in both metabolized and unmetabolized forms. 10.9% of the intravenous dose was found in the fecal matter.
Three rats were given berberine (9.25 MBq/kg) intravenously. After 24 hours, gall bladder secretions were collected and evaluated for the presence of berberine. There was 10.1±0.9% (x±SD, n=3) of berberine in the gall bladder secretions.

[7] = system: hyperlipidemia Chinese hamster; assay: Lipid lowering effects of berberine in hyperlipidemia Chinese hamster; assay type: in vivo; details: for LDL reduced by: after the 10 day treatment; for LDL Protein / Triglycerides / Cholesterol: serum, ten days; for LDL Protein: saline control 2.8 ± 0.9; for Triglycerides: saline control 3.6 ± 0.4; for Cholesterol: saline control 6.4 ± 1.0
Protocol: as §1

[8] = clinical; details: human, in vivo, po, 300 mg
Protocol: Healthy human volunteers were given 300 mg of berberine orally. […] The blood concentration curve was analyzed by 3P87 Pharmacokinetics Software program (Chinese Pharmacological Association, China).

[9] = system: InsR mRNA; assay: Rat liver InsR and LDLR mRNA (quantitative real time RT-PCR); assay type: in vivo; details: rats, 14 days
Protocol: The livers were dissected and stored in liquid nitrogen for RNA extraction, real-time RT-PCR and PKC activity assay. Total blood samples were also collected to assay fasting blood glucose and serum insulin levels. The insulin levels were analyzed using radio-immunoassay (Linco Research, St Charles, Mo.). The insulin sensitivity indexes (ISI) were calculated according to the formula: 10^4/(fasting serum insulin X fasting blood glucose) (Hanson, Am. J. Epidemiol. 15 1(2), 190-198 (2000)). The insulin level and ISI of normal rats were also determined for comparison. […] It also elevated the fasting blood glucose from 7 to 12.8 mmol/L (P<0.001).
Liver mRNA extracts were used for quantitative real time RT-PCR assay. Total cellular RNA was reverse-transcribed into cDNA using the Reverse Transcription System (Promega, Madison, Wis.). Quantitative real-time PCR were performed with these cDNA using the Applied Biosystems 7500 Real-Time PCR System and TaqMan® Universal PCR Master Mix (Applied Biosystems, Foster City, Calif.). […] 2.5 μl of cDNA sample, 12.5 μl of Universal PCR Master Mix, and 1.25 μl of TaqMan® Gene Expression Assay reagent were mixed in a 25 μl reaction system, and the comparative CT method was used in relative gene quantification using the TaqMan® SDS analysis software. […]

[10] = high fat diet rats treated for 15 days, berberine 80 mg/kg/day, lovastatin 10 mg/kg/day
[11] = high fat diet rats, Day 0 (untreated rats, baseline)
[12] = 10 mg/kg/day peritoneal injection
[13] = 20 mg/kg/day peritoneal injection

Q: Which concentration at 2 hours ([1]; 280 mg/kg) does the source give for `COc1ccc2cc3[n+](cc2c1OC)CCc1cc2c(cc1-3)OCO2` [berberine] here?
A: 31400 ng/mL

Q: And the serum concentration ([1]; 280 mg/kg, 3 hours)?
A: 22.6 ηg

Q: And the concentration at 2 hours ([1]; 700 mg/kg)?
A: 21.5 ng/mL

Q: What about the concentration at 3 hours ([1]; 700 mg/kg) of the same compound?
A: 44.9 ng/mL

Q: What about the concentration at 5 hours ([1]; 700 mg/kg) of the same compound?
A: 49.5 ng/mL

Q: What about the concentration at 7 hours ([1]; 700 mg/kg) of the same compound?
A: 36.4 ng/mL

Q: What about the concentration at 9 hours ([1]; 700 mg/kg) of the same compound?
A: 27.8 ng/mL

Q: And the concentration at 24 hours ([1]; 700 mg/kg)?
A: 16 ng/mL

Q: And the InsR expression [2]?
A: identical upregulating effect

Q: What about the “Cholesterol Day 15” value [3, 10] of the same compound?
A: 2.75 mmol/L

Q: What about the “LDL Day 15” value [3, 10] of the same compound?
A: 1.7 mmol/L

Q: What about the “Cholesterol Day 0” value [3, 11] of the same compound?
A: 3.65 mmol/L

Q: And the “LDL Day 0” value [3, 11]?
A: 2.25 mmol/L

Q: And the “increase in LDLR mRNA in hamster livers” value [4]?
A: 3.5 fold

Q: And the “increase in LDLR protein in hamster livers” value [4]?
A: 2.6 fold

Q: What about the LD50 ([5]; intraperitoneal, peritoneal injection) of the same compound?
A: 30 to 32.2 mg/kg

Q: What about the LD50 ([5]; intravenous injection) of the same compound?
A: 7.6 to 10.2 mg/kg

Q: What about the LD50 ([5]; sc, subcutaneous injection) of the same compound?
A: 13.9 to 20 mg/kg

Q: And the “intravenous dose found in accumulated urine (metabolized and unmetabolized forms)” value [6]?
A: 73%

Q: What about the “intravenous dose found in the fecal matter” value [6] of the same compound?
A: 10.9%

Q: What about the “LDL reduced by” value ([7]; 50 mg/kg/day) of the same compound?
A: 26%

Q: What about the “LDL reduced by” value ([7]; 100 mg/kg/day) of the same compound?
A: 42%

Q: What about the “LDL Protein” value [7, 12] of the same compound?
A: 1.6 ± 0.3

Q: And the Triglycerides [7, 12]?
A: 2.6 ± 0.3

Q: And the Cholesterol [7, 12]?
A: 4.1 ± 0.7

Q: What about the “LDL Protein” value [7, 13] of the same compound?
A: 0.9 ± 0.1

Q: And the Triglycerides [7, 13]?
A: 1.7 ± 0.5

Q: And the Cholesterol [7, 13]?
A: 3.2 ± 0.5

Q: And the “LDL Protein” value ([7]; 50 mg/kg/day (orally))?
A: 2.07 ± 0.9

Q: What about the Cholesterol ([7]; 50 mg/kg/day (orally)) of the same compound?
A: 3.5 ± 0.5

Q: And the “LDL Protein” value ([7]; 100 mg/kg/day oral)?
A: 1.2 ± 0.2

Q: And the Triglycerides ([7]; 100 mg/kg/day oral)?
A: 1.9 ± 0.4

Q: What about the Cholesterol ([7]; 100 mg/kg/day oral) of the same compound?
A: 3.8 ± 0.7

Q: And the AUC [8]?
A: 2800 ng·h/mL

Q: What about the Cmax [8] of the same compound?
A: 395 ng/mL

Q: What about the “clear rate CL” value [8] of the same compound?
A: 130.5 L/h

Q: And the half-life [8]?
A: 2.91 h

Q: And the “increase in InsR mRNA in the livers” value ([9]; 75 mg/kg/day)?
A: 1.8 fold

Q: And the “increase in InsR mRNA in the livers” value ([9]; 150 mg/kg/day)?
A: 2.3 fold

From patent US20080081781A1, “Methods and compositions for the treatment of metabolic syndrome” (priority 2004, published 2008)
